Experimental data from patent publication US20110217265A1, “Screening for Inhibitors of HCV Amphipathic Helix (AH) Function” (priority 2008, published 2011).
Entries after “also recorded” stand apart in the source; their conditions may differ.

Key:
[1] = system: subgenomic genotype 1b replicon RNA (Bart79ILuc); test: Transient genotype 1b subgenomic replicon (Bart79I-luc) luciferase replication assay in Huh7.5 cells; format: cell-based, Hepatitis C Virus genotype 1b; details: luciferase at 72 hr of treatment
Excerpt: Plasmids. Bart79I, a high-efficiency subgenomic replicon of HCV (28), harbors the neomycin resistance gene (neo) and the HCV nonstructural proteins. The Bart-Luciferase plasmid, Bart79I-luc, was cloned from the Bart791 parent (29) and the pGL3-Basic parent (Promega). In brief, a NotI site was introduced after the 15th amino acid of Core in Bart791 using PCR mutagenesis. The plasmid pcDNA3.1-NS4B, which encodes the Con1 NS4B sequence and was used to study the protein stability of the wild type and mutant NS4Bs, was described previously. […]
Transient Replication Assays. […] Firefly luciferase activities were measured at 8, 48, 96, and 144 hr post electroporation by using a firefly luciferase kit from Promega (Madison, Wis.).
Antiviral Assays of Compounds. […] Plates were then scanned and fluorescence was detected by using a FLEXstation II 384 (Molecular Devices). […] Viral RNA replication was determined using Renilla (FL-J6/JFH-5′C19Rluc2AUbi) or firefly (Bart791-luc) luciferase assays, according to the manufacturer's (Promega) directions. The same samples subjected to the viability assay described below were analyzed in this assay. […] Luminescence was measured over 10 seconds with a 2-second delay using a Berthold LB 96 V luminometer. […]

genotype 1b 4BAH2 = genotype 1b 4BAH2 (Hepatitis C virus genotype 1b, UniProt Q9WMX2); test: QCM-D of 4BAH2 membrane association with POPC bilayer, genotype 1b; format: binding; set-up: purchased Anaspec Corporation (San Jose, Calif., USA)
Procedure: (§1) Quartz Crystal Microbalance-Dissipation (QCM-D). Adsorption kinetics and the properties of the adsorbed layer were studied using a Q-Sense E4, multiple channel system (Q-Sense AB, Gothenburg, Sweden). The samples are introduced using a peristaltic pump with flow rate of 0.1 mL·min^−1. AT-cut quartz crystals (Q-Sense) of 14 mm in diameter coated with a SiOx layer were used for all vesicle interaction and adsorption experiments. Each QCM crystal was treated with oxygen plasma at ˜80 watts for 3 min prior to measurement (March Plasmod Plasma Etcher, March Instruments, California, USA). Each crystal was initially driven near its resonance frequency as indicated by a maximum in the current. To capture the characteristic dissipation, the drive circuit was short-circuited and the exponential decay of the crystal oscillation was recorded and analyzed, yielding the frequency and dissipation changes at 5, 15, 25, 35, 45, 55, and 65 MHz. The temperature of the Q-Sense cell was set at 25.0° C. and accurately controlled by a Peltier element in the cell with fluctuation smaller than ±0.05° C. All experiments were repeated at least three times, with a standard deviation of less than 2%.

genotype 2a 4BAH2 = genotype 2a 4BAH2 (Hepatitis C virus genotype 2a, UniProt Q99IB8); test: QCM-D of 4BAH2 membrane association with POPC bilayer, genotype 2a; format: binding; set-up: purchased Anaspec Corporation (San Jose, Calif., USA)
Procedure: as §1

genotype 2a 4BAH2, sequence (Q99IB8 1758-1780): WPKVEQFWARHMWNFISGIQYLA
genotype 1b 4BAH2, sequence (Q9WMX2 1754-1776): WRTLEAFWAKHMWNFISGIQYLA

Structure (SMILES): CC(C)CN(C)c1nc(N)c(C(=O)NC(=N)N)nc1Cl [C4, 3-amino-N-carbamimidoyl-6-chloro-5-(isobutyl(methyl)amino)pyrazine-2-carboxamide]
- Inhibition of HCV genotype 1b genome replication [1]: inhibits HCV replication; also recorded: dose-dependent inhibition
- Effect on genotype 1b 4BAH2 membrane association (QCM-D) (genotype 1b 4BAH2): no effect
- Effect on genotype 2a 4BAH2 membrane association (QCM-D) (genotype 2a 4BAH2): no effect
